# From the NIST ThermoML archive (doi:10.1021/je700714m)
# Numbers after ± are expanded uncertainties.
# What was measured:
# [1] = for mass density / speed of sound / viscosity: 100 kPa, Liquid
# [2] = refractive index (Na D-line) (dimensionless); conditions: 101.33 kPa, Liquid
# [3] = xn = mol fraction of the nth substance listed; conditions: x2 = 0; for mass density / speed of sound / viscosity: 100 kPa, Liquid
# [4] = refractive index (Na D-line) (dimensionless); xn = mol fraction of the nth substance listed; conditions: 100 kPa, Liquid, x2 = 0
Structure (SMILES),surface tension liquid-gas ([1]; 303.15 K),mass density ([1]; 303.15 K),speed of sound ([1]; 303.15 K),viscosity ([1]; 303.15 K),surface tension liquid-gas ([1]; 313.15 K),mass density ([1]; 313.15 K),viscosity ([1]; 313.15 K),surface tension liquid-gas ([1]; 323.15 K),mass density ([1]; 323.15 K),speed of sound ([1]; 323.15 K),viscosity ([1]; 323.15 K),refractive index ([2]; 323.15 K),other results
Clc1ccccc1 [chlorobenzene],33.6 ± 1.9 mN/m,1102 ± 4.7 kg/m3,1220 ± 170 m/s,0.7105 ± 0.074 mPa·s,32.3 ± 1.8 mN/m,1080 ± 4.9 kg/m3,0.6914 ± 0.072 mPa·s,31.26 ± 1.8 mN/m,1067.4 ± 5.2 kg/m3,695 ± 120 m/s,0.5543 ± 0.06 mPa·s,1.548 ± 0.0012,
COc1ccc(C=O)cc1 [4-methoxybenzaldehyde],99.08 ± 4.9 mN/m,1125.5 ± 4.8 kg/m3,1684 ± 220 m/s,3.275 ± 0.29 mPa·s,96.11 ± 4.8 mN/m,1119.1 ± 5.1 kg/m3,2.97 ± 0.27 mPa·s,94.1 ± 4.7 mN/m,1114.1 ± 5.5 kg/m3,1571 ± 200 m/s,2.442 ± 0.22 mPa·s,1.5463 ± 0.0012,speed of sound ([1]; 313.15 K): 1631 ± 210 m/s; refractive index ([2]; 303.15 K): 1.5571 ± 0.0012; refractive index ([2]; 313.15 K): 1.5488 ± 0.0012
Clc1ccccc1 [chlorobenzene] + COc1ccc(C=O)cc1,,,,,,,,,,,,,surface tension liquid-gas ([3]; 303.15 K): 33.6 ± 1.9 mN/m; mass density ([3]; 303.15 K): 1102 ± 4.7 kg/m3; speed of sound ([3]; 303.15 K): 1220 ± 170 m/s; viscosity ([3]; 303.15 K): 0.7105 ± 0.074 mPa·s; surface tension liquid-gas ([3]; 313.15 K): 32.3 ± 1.8 mN/m; mass density ([3]; 313.15 K): 1080 ± 4.9 kg/m3; viscosity ([3]; 313.15 K): 0.6914 ± 0.072 mPa·s; surface tension liquid-gas ([3]; 323.15 K): 31.26 ± 1.8 mN/m; mass density ([3]; 323.15 K): 1067.4 ± 5.2 kg/m3; speed of sound ([3]; 323.15 K): 695 ± 120 m/s; viscosity ([3]; 323.15 K): 0.5543 ± 0.06 mPa·s; refractive index ([4]; 303.15 K): 1.559 ± 0.0012; refractive index ([4]; 313.15 K): 1.5509 ± 0.0012; refractive index ([4]; 323.15 K): 1.548 ± 0.0012
